We go through twelve compounds from US8796289B2 (AbbVie Inc., priority 2011, dated 2014).

pKi: −log10 of the molar value.

A word on the pKi: it is the negative decadic logarithm of the Ki, by convention in mol/L.

Sequence of GST-tagged-Wee1 kinase (P30291 whole entry): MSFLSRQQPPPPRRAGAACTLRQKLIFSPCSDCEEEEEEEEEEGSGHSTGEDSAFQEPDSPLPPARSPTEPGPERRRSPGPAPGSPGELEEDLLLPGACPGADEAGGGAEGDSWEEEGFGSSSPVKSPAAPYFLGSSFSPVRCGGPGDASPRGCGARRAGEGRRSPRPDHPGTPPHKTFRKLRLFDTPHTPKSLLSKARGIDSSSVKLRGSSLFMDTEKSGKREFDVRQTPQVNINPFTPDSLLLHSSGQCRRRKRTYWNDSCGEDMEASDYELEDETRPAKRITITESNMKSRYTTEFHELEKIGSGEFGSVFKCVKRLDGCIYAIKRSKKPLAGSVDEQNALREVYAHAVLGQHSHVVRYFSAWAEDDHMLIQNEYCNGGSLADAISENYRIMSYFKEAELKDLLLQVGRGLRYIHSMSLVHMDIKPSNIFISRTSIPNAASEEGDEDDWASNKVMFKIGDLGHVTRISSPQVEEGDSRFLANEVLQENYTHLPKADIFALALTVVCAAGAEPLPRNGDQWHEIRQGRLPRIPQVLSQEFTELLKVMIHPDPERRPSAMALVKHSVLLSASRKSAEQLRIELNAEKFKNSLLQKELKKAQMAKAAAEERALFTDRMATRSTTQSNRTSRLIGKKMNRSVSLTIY

The test addresses GST-tagged-Wee1 kinase (Homo sapiens, UniProt P30291). The experiment in a line: Wee1 time-resolved fluorescence equilibrium binding assay (displacement of Oregon Green-labeled ATP-competitive kinase probe). As to the method:
Wee1 kinase was assayed using a time-resolved fluorescence equilibrium binding assay monitoring displacement of a rapidly reversible Oregon Green-labeled ATP-competitive kinase probe (N-(2-(2-(2-(4-(4-(5-chloro-4-(2-(1-hydroxycyclobutyl)thiazol-5-yl)-1H-pyrrolo[2,3-b]pyridin-2-yl)phenyl)piperazin-1-yl)ethoxy)ethoxy)ethyl)-2′,7′-difluoro-3′,6′-dihydroxy-3-oxo-3H-spiro[isobenzofuran-1,9′-xanthene]-5-carboxamide) by competitive Wee1 inhibitors.
With `C=CCn1nc(-c2ccc(Cl)cc2Cl)c2nc(Nc3ccc(N4CCN(C)CC4)cc3)ncc2c1=O` [Example 47, 6-allyl-8-(2,4-dichlorophenyl)-2-{[4-(4-methylpiperazin-1-yl)phenyl]amino}pyrimido[4,5-d]pyridazin-5(6H)-one], the pKi was 6.62.
With `Cc1nn(-c2ncccc2Cl)c(=O)c2cnc(Nc3ccc4c(c3)CC(N(C)C)C4)nc12` (stereo not drawn) [Example 367, 6-(3-chloropyridin-2-yl)-2-{[2-(dimethylamino)-2,3-dihydro-1H-inden-5-yl]amino}-8-methylpyrimido[4,5-d]pyridazin-5(6H)-one], the pKi was 8.43. Against the preceding compound, the pKi is 1.81 log units higher.
Take `O=c1c2cnc(Nc3ccc(N4CCNCC4)cc3)nc2c(-c2ccccn2)nn1C1CCCCC1` [Example 249, 6-cyclohexyl-2-{[4-(piperazin-1-yl)phenyl]amino}-8-(pyridin-2-yl)pyrimido[4,5-d]pyridazin-5(6H)-one]: the pKi was 5.82. Against the preceding compound, the pKi is 2.61 log units lower.
The result for `Cc1cccc(Cl)c1-n1nc(C)c2nc(Nc3ccc(NC4CCNCC4)cc3)ncc2c1=O` [Example 524, 6-(2-chloro-6-methylphenyl)-8-methyl-2-{[4-(piperidin-4-ylamino)phenyl]amino}pyrimido[4,5-d]pyridazin-5(6H)-one] reads 9.52; that for `CCc1nn(-c2c(Cl)cccc2Cl)c(=O)c2cnc(Nc3ccc4c(c3)CCN(C)C4(C)C)nc12` [Example 460, 6-(2,6-dichlorophenyl)-8-ethyl-2-[(1,1,2-trimethyl-1,2,3,4-tetrahydroisoquinolin-6-yl)amino]pyrimido[4,5-d]pyridazin-5(6H)-one], 9.49.
Regarding `CN1CCN(c2ccc(Nc3ncc4c(=O)n(-c5c(Cl)cccc5Cl)nc(-c5cncs5)c4n3)cc2)CC1` [Example 307, 6-(2,6-dichlorophenyl)-2-{[4-(4-methylpiperazin-1-yl)phenyl]amino}-8-(1,3-thiazol-5-yl)pyrimido[4,5-d]pyridazin-5(6H)-one], the pKi is 8.85.
`O=c1c2cnc(Nc3ccc(N4CCNCC4)cc3)nc2c(-c2ccccn2)nn1-c1cccc2ccccc12` [Example 286, 6-(naphthalen-1-yl)-2-{[4-(piperazin-1-yl)phenyl]amino}-8-(pyridin-2-yl)pyrimido[4,5-d]pyridazin-5(6H)-one]: the pKi is 8.03.
The compound `Cc1nn(-c2c(Cl)cccc2Cl)c(=O)c2cnc(Nc3cccc(C(=O)NC4CCNCC4)c3)nc12` [Example 530, 3-{[6-(2,6-dichlorophenyl)-8-methyl-5-oxo-5,6-dihydropyrimido[4,5-d]pyridazin-2-yl]amino}-N-(piperidin-4-yl)benzamide] showed a pKi of 9.52.
For `CN1CCN(c2ccc(Nc3ncc4c(=O)n(-c5ccccc5Cl)nc(-c5cccc(Br)c5)c4n3)cc2)CC1` [Example 65, 8-(3-bromophenyl)-6-(2-chlorophenyl)-2-{[4-(4-methylpiperazin-1-yl)phenyl]amino}pyrimido[4,5-d]pyridazin-5(6H)-one], the pKi is 9.00. Against the preceding compound, the pKi is 0.52 log units lower.
The compound `Cc1nn(-c2c(Cl)cccc2Cl)c(=O)c2cnc(Nc3ccc4c(c3)CN(C)CC4)nc12` [Example 490, 6-(2,6-dichlorophenyl)-8-methyl-2-[(2-methyl-1,2,3,4-tetrahydroisoquinolin-7-yl)amino]pyrimido[4,5-d]pyridazin-5(6H)-one] showed a pKi of 9.96.
Compound `CN1CCN(c2ccc(Nc3ncc4c(=O)n(CCC#N)nc(CCc5ccccc5)c4n3)cc2)CC1` [Example 8, 3-[2-{[4-(4-methylpiperazin-1-yl)phenyl]amino}-5-oxo-8-(2-phenylethyl)pyrimido[4,5-d]pyridazin-6(5H)-yl]propanenitrile] gave a pKi of 6.43. Compared with the last compound, the pKi is 3.53 log units lower.
The compound `O=c1c2cnc(Nc3ccc4c(c3)CNCC43CC3)nc2c(-c2cccc(F)n2)nn1-c1c(Cl)cccc1Cl` [Example 257, 6-(2,6-dichlorophenyl)-2-(2′,3′-dihydro-1′H-spiro[cyclopropane-1,4′-isoquinolin]-7′-ylamino)-8-(6-fluoropyridin-2-yl)pyrimido[4,5-d]pyridazin-5(6H)-one] had a pKi of 8.70.
